Results reported in patent publication US10722514B2 (FLX Bio, Inc., priority 2017, dated 2020).

biological target: T1, recombinant full-length USP7 (Homo sapiens, UniProt Q93009); assay: USP7-mediated ubiquitin-rhodamine cleavage assay; format: biochemical; details: recombinant full-length USP7 62 pM; ubiquitin-rhodamine 100 nM; 30-minute incubation with compound, 1 hour reaction at room temperature; read-out: Potency: USP7 IC50
T1 construct: A 25 μl reaction volume containing recombinant full-length USP7 (62 pM)
Summary of the method: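 Compounds are first incubated with 62 pM enzyme for 30 min at room temperature in pH 7.3 HEPES buffer containing TCEP and BSA. Cleavage of 100 nM ubiquitin-rhodamine proceeds for 1 h before an acid quench, and IC50 is derived from fluorescence.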

T1 sequence (Q93009 whole entry): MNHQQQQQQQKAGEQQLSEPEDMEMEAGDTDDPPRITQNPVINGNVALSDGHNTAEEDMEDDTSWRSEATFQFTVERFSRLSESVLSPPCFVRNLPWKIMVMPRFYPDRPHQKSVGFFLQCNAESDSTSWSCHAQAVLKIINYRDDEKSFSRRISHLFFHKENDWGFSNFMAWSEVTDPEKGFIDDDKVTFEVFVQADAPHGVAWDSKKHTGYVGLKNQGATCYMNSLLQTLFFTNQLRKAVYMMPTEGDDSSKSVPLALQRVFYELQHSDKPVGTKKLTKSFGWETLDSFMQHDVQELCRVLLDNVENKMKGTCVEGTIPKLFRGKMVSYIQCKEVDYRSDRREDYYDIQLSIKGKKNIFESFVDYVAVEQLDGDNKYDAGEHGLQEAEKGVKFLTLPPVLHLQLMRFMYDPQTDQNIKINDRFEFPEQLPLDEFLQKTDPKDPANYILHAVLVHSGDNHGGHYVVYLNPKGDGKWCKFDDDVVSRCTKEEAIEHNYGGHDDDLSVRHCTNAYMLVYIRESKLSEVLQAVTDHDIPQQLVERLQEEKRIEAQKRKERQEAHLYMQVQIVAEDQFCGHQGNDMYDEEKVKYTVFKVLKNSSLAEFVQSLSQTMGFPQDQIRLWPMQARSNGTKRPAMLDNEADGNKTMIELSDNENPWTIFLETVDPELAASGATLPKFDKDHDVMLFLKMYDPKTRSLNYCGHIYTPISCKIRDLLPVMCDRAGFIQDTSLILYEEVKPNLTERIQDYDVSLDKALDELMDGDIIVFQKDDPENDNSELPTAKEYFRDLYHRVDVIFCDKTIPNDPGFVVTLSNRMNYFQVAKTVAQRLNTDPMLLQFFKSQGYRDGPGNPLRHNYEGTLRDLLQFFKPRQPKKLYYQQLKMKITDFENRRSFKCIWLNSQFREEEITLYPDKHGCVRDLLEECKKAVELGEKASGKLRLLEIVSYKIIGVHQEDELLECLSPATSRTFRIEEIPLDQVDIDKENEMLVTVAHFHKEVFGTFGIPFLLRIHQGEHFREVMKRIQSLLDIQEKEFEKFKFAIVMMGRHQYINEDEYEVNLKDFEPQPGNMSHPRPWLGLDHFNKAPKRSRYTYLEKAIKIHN

Compound | IC50
Cc1cc(Cl)cc(-c2ccnc3cc(CO)sc23)c1OCCC1CNC1 [Example 30, (7-(2-(2-(Azetidin-3-yl)ethoxy)-5-chloro-3-methylphenyl)thieno[3,2-b]pyridin-2-yl)methanol] | > 30000 nM
CCC(O)c1cc2nccc(-c3cc(Cl)cc(C)c3O[C@H]3CCNC3)c2s1 (stereo partly drawn) [Example 50, 1-(7-(5-Chloro-3-methyl-2-(((S)-pyrrolidin-3-yl)oxy)phenyl)thieno[3,2-b]pyridin-2-yl)propan-1-ol] | 1000 to 10000 nM
Cc1cc(Cl)cc(-c2ccnc3cc(CN4C(=O)CCC4=O)sc23)c1O[C@@H]1CN(C)C[C@@H]1F [Example 124, 1-((7-(5-Chloro-2-(((3R,4S)-4-fluoro-1-methylpyrrolidin-3-yl)oxy)-3-methylphenyl)thieno[3,2-b]pyridin-2-yl)methyl)pyrrolidine-2,5-dione] | < 1000 nM
Cc1cc(Cl)cc(-c2ccnc3cc(CN4C(=O)C5C(C4=O)C5(C)C)sc23)c1O[C@@H]1CNC[C@@H]1C (stereo partly drawn) [Example 328, 3-[[7-[5-chloro-3-methyl-2-[(3S,4S)-4-methylpyrrolidin-3-yl]oxy-phenyl]thieno[3,2-b]pyridin-2-yl]methyl]-6,6-dimethyl-3-azabicyclo[3.1.0]hexane-2,4-dione] | < 1000 nM
CCC(O)c1cc2nccc(-c3cc(C#N)cc(C)c3OCC3(C#N)CNC3)c2s1 (stereo not drawn) [Example 10, 3-((4-Cyano-2-(2-(1-hydroxypropyl)thieno[3,2-b]pyridin-7-yl)-6-methylphenoxy)methyl)azetidine-3-carbonitrile] | < 1000 nM
Cc1cc(Cl)cc(-c2ccnc3cc(CCN4C(=O)c5ccccc5S4(=O)=O)sc23)c1O[C@@H]1CNC[C@@H]1F [Example 139, 2-(2-(7-(5-Chloro-2-(((3R,4S)-4-fluoropyrrolidin-3-yl)oxy)-3-methylphenyl)thieno[3,2-b]pyridin-2-yl)ethyl)benzo[d]isothiazol-3(2H)-one 1,1-dioxide] | 10000 to 30000 nM
Cc1cc(Cl)cc(-c2ccnc3cc(CNS(C)(=O)=O)sc23)c1O[C@@H]1CNC[C@@H]1F [Example 107, N-((7-(5-Chloro-2-(((3R,4S)-4-fluoropyrrolidin-3-yl)oxy)-3-methylphenyl)thieno[3,2-b]pyridin-2-yl)methyl)methanesulfonamide] | 1000 to 10000 nM
Cc1cc(Cl)cc(-c2ccnc3cc(Cn4c(C(F)(F)F)cccc4=O)sc23)c1OC1CCNCC1 [Example 227, 1-((7-(5-Chloro-3-methyl-2-(piperidin-4-yloxy)phenyl)thieno[3,2-b]pyridin-2-yl)methyl)-6-(trifluoromethyl)pyridin-2(1H)-one] | 10000 to 30000 nM
Cc1cc(Cl)cc(-c2ccnc3cc(CO)sc23)c1O[C@@H]1CNC[C@H]1O [Example 80, (3R,4R)-4-(4-Chloro-2-(2-(hydroxymethyl)thieno[3,2-b]pyridin-7-yl)-6-methylphenoxy)pyrrolidin-3-ol] | 1000 to 10000 nM
Cc1cc(Cl)cc(-c2ccnc3cc(CN4C(=O)CCC4=O)sc23)c1O[C@H]1CCCNCC1 [Example 269, (S)-1-((7-(2-(Azepan-4-yloxy)-5-chloro-3-methylphenyl)thieno[3,2-b]pyridin-2-yl)methyl)pyrrolidine-2,5-dione] | < 1000 nM
Cc1cc(Cl)cc(-c2ccnc3ccsc23)c1OC1CC2CNC1C2 (stereo not drawn) [Example 171, 7-(2-((2-Azabicyclo[2.2.1]heptan-6-yl)oxy)-5-chloro-3-methylphenyl)thieno[3,2-b]pyridine] | 10000 to 30000 nM
Cc1cc(Cl)cc(-c2ccnc3cc(Cn4c(=O)ccn(CC(F)(F)F)c4=O)sc23)c1O[C@H]1CCC(C)(C)NC1 [Example 286, 3-[[7-[5-chloro-2-[[(3S)-6,6-dimethyl-3-piperidyl]oxy]-3-methyl-phenyl]thieno[3,2-b]pyridin-2-yl]methyl]-1-(2,2,2-trifluoroethyl)pyrimidine-2,4-dione; 2,2,2-trifluoroacetic acid] | < 1000 nM
Cc1cc(Cl)cc(-c2ncnc3cc(CN4C(=O)C5C(C4=O)C5(C)C)sc23)c1O[C@H]1CCCN[C@@H]1C (stereo partly drawn) [Example 360, 3-[[4-[5-chloro-3-methyl-2-[[(2R,3S)-2-methyl-3-piperidyl]oxy]phenyl]thieno[3,2-d]pyrimidin-6-yl]methyl]-6,6-dimethyl-3-azabicyclo[3.1.0]hexane-2,4-dione] | < 1000 nM
CCN1C[C@H]2C[C@@H]1[C@H](Oc1c(C)cc(Cl)cc1-c1ccnc3cc(CN4C(=O)CCC4=O)sc13)C2 [Example 321, 1-[[7-[5-chloro-2-[[(1S,4R,5R)-3-ethyl-3-azabicyclo[2.2.1]heptan-5-yl]oxy]-3-methyl-phenyl]thieno[3,2-b]pyridin-2-yl]methyl]pyrrolidine-2,5-dione] | < 1000 nM
Cc1cc(Cl)cc(-c2ccnc3cc(CN4C(=O)CCC4=O)sc23)c1O[C@@H]1CCN(C)C[C@@H]1C [Example 308, 1-[[7-[5-chloro-2-[[(3S,4R)-1,3-dimethyl-4-piperidyl]oxy]-3-methyl-phenyl]thieno[3,2-b]pyridin-2-yl]methyl]pyrrolidine-2,5-dione] | < 1000 nM
Cc1cc([N+](=O)[O-])cc(-c2ccnc3cc(Cn4c(=O)ccn(CC(F)(F)F)c4=O)sc23)c1OCc1cn[nH]c1 [Example 283, 3-[[7-[3-methyl-5-nitro-2-(1H-pyrazol-4-ylmethoxy)phenyl]thieno[3,2-b]pyridin-2-yl]methyl]-1-(2,2,2-trifluoroethyl)pyrimidine-2,4-dione; 2,2,2-trifluoroacetic acid] | < 1000 nM
Cc1cc(Cl)cc(-c2ncnc3cc(CN4C(=O)CC(C)C4=O)sc23)c1O[C@@H]1CNC[C@@H]1F (stereo partly drawn) [Example 378, 1-[[4-[5-chloro-2-[(3R,4S)-4-fluoropyrrolidin-3-yl]oxy-3-methyl-phenyl]thieno[3,2-d]pyrimidin-6-yl]methyl]-3-methyl-pyrrolidine-2,5-dione; 2,2,2-trifluoroacetic acid] | < 1000 nM

same assay, conditions: recombinant full-length USP7 62 pM; ubiquitin-rhodamine 100 nM; 30-minute incubation, 1 hour reaction at room temperature; read-out: Potency (USP7 IC50)

Compound | IC50
CCN(CC)C(=O)CN1CC[C@@H](Oc2c(C)cc(Cl)cc2-c2ccnc3cc(Cn4c(=O)ccn(CC(F)(F)F)c4=O)sc23)[C@@H](C)C1 [Example 692, 2-[(3S,4R)-4-[4-chloro-2-[2-[[2,6-dioxo-3-(2,2,2-trifluoroethyl)pyrimidin-1-yl]methyl]thieno[3,2-b]pyridin-7-yl]-6-methyl-phenoxy]-3-methyl-1-piperidyl]-N,N-diethyl-acetamide] | < 1000 nM

same assay, conditions: recombinant full-length USP7 62 pM; ubiquitin-rhodamine 100 nM; 30-minute pre-incubation, 1 hour reaction at room temperature; read-out: Potency (USP7 IC50)

Compound | IC50
CCN1C[C@H](F)[C@H](Oc2c(C)cc(Cl)cc2-c2ccnc3cc(Cn4c(=O)ccn(C)c4=O)sc23)C1 [Example 459, 3-[[7-[5-chloro-2-[(3R,4S)-1-ethyl-4-fluoro-pyrrolidin-3-yl]oxy-3-methyl-phenyl]thieno[3,2-b]pyridin-2-yl]methyl]-1-methyl-pyrimidine-2,4-dione; 2,2,2-trifluoroacetic acid] | < 1000 nM
COC(=O)[C@@H]1C[C@H](Oc2c(C)cc(Cl)cc2-c2ccnc3cc(Cn4c(=O)ccn(CC(F)(F)F)c4=O)sc23)CN1 [Example 652, methyl (2S,4S)-4-[4-chloro-2-[2-[[2,6-dioxo-3-(2,2,2-trifluoroethyl)pyrimidin-1-yl]methyl]thieno[3,2-b]pyridin-7-yl]-6-methyl-phenoxy]pyrrolidine-2-carboxylate] | < 1000 nM
Cc1cc(Cl)cc(-c2ccnc3cc(Cn4c(=O)ccn(CC(F)(F)F)c4=O)sc23)c1OC1(C)CCNC1 (stereo not drawn) [Example 663, 3-[[7-[5-chloro-3-methyl-2-(3-methylpyrrolidin-3-yl)oxy-phenyl]thieno[3,2-b]pyridin-2-yl]methyl]-1-(2,2,2-trifluoroethyl)pyrimidine-2,4-dione] | < 1000 nM
Cc1cc(Cl)cc(-c2ccnc3cc(Cn4c(=O)ccn(C)c4=O)sc23)c1O[C@H]1CCCN(C)CC1 [Example 492, 3-[[7-[5-chloro-3-methyl-2-[(4S)-1-methylazepan-4-yl]oxy-phenyl]thieno[3,2-b]pyridin-2-yl]methyl]-1-methyl-pyrimidine-2,4-dione] | < 1000 nM
Cc1cc(Cl)cc(-c2ccnc3cc(Cn4c(=O)ccn(CC(F)(F)F)c4=O)sc23)c1O[C@H]1CNC[C@@H]1C [Example 627, 3-[[7-[5-chloro-3-methyl-2-[(3R,4S)-4-methylpyrrolidin-3-yl]oxy-phenyl]thieno[3,2-b]pyridin-2-yl]methyl]-1-(2,2,2-trifluoroethyl)pyrimidine-2,4-dione] | < 1000 nM
Cc1cc(Cl)cc(-c2ccnc3cc(CN4C(=O)CCC4=O)sc23)c1O[C@H]1CCCN(C2COC2)C1 [Example 449, 1-[[7-[5-chloro-3-methyl-2-[[(3S)-1-(oxetan-3-yl)-3-piperidyl]oxy]phenyl]thieno[3,2-b]pyridin-2-yl]methyl]pyrrolidine-2,5-dione] | < 1000 nM
Cc1cc(Cl)cc(-c2ccnc3cc(Cn4c(=O)ccn(CC(F)(F)F)c4=O)sc23)c1O[C@@H]1CNC[C@@H]1C(F)F [Example 620, 3-[[7-[5-chloro-2-[(3S,4S)-4-(difluoromethyl)pyrrolidin-3-yl]oxy-3-methyl-phenyl]thieno[3,2-b]pyridin-2-yl]methyl]-1-(2,2,2-trifluoroethyl)pyrimidine-2,4-dione] | < 1000 nM
Cc1cc(Cl)cc(-c2ccnc3cc(Cn4c(=O)ccn(CC(F)(F)F)c4=O)sc23)c1O[C@H]1CCCNCC1 [Example 656, 3-[[7-[2-[(4S)-azepan-4-yl]oxy-5-chloro-3-methyl-phenyl]thieno[3,2-b]pyridin-2-yl]methyl]-1-(2,2,2-trifluoroethyl)pyrimidine-2,4-dione; 2,2,2-trifluoroacetic acid] | < 1000 nM
Cc1cc(Cl)cc(-c2ccnc3cc(Cn4c(=O)ccn(C)c4=O)sc23)c1O[C@@H]1CNC[C@@H](F)C1 [Example 496, 3-[[7-[5-chloro-2-[[(3S,5S)-5-fluoro-3-piperidyl]oxy]-3-methyl-phenyl]thieno[3,2-b]pyridin-2-yl]methyl]-1-methyl-pyrimidine-2,4-dione] | < 1000 nM
